Legend:
ATM enzyme (human) = ATM enzyme (human) (Homo sapiens, UniProt Q13315); assay: ATM kinase assay (HTRF, phosphorylation of GST-cMyc-p53); format: biochemical
Experimental: ATM enzyme (human) was added to the reaction solution containing 30 nM GST-cMyc-p53 and 10 μM Mg/ATP, and then 50 times the concentration of the tested compound (or reference compound AZD0156) dissolved in 100% DMSO was added to the final concentration of 10 μM/1 μM/0.1 μM/0.01 μM. The reaction was initiated by the addition of a Mg/ATP mixture and incubation for 30 minutes at room temperature, the reaction was quenched by the addition of a stop solution containing EDTA. Finally, the detection buffer containing the d2-labeled anti-GST monoclonal antibody and the europium-labeled anti-phospho p53 (Ser15) antibody was added. The plate was then read in time resolved fluorescence mode and the homogeneous time resolved fluorescence (HTRF) signal was determined according to the equation: HTRF=10000×(Em665nm/Em620nm). Each compound sample was repeated in duplicate. The negative control contained all components except the ATM enzyme, and the positive control contained all components. All reactions were quenched by adding EDTA.
The compounds were serially diluted to 10 concentrations with 100% DMSO at the ratio of 1:3 and 1:10 (the last concentration was negative control of DMSO), then added to the ATM buffer and diluted to a final concentration of 10, 3, 1, 0.3, 0.1, 0.03, 0.01, 0.003, 0.001 and 0 μM, respectively. ATM kinase inhibition was detected by using the method described above. The curve equation for calculating IC50 value is as follows: […]
wherein, C is the concentration of compound and D is the slope factor. Table 2 summarizes the IC50 values of compounds inhibiting ATM kinase.

[1] = tested on: human colon cancer cell SW620; assay: MTT assay, growth of SW620 cells, compounds combined with CPT-11; format: cell-based; details: 205 nM CPT-11, 5 days, MTT
Experimental: SW620 cells were digested by trypsinase, centrifuged at 800 rpm for 5 minutes, the supernatant was discarded, resuspended with fresh medium (RPMI 1640 medium+10% FBS) and counted. The cells were seeded into 96-well cell culture plate with appropriate cell density and incubated overnight in a 37° C. 5% CO2 incubator. The stock solutions of the tested compound and the reference compound AZD0156 were serially diluted to 8 concentrations by DMSO at the ratios of 1:3 and 1:10, respectively, and the last concentration was negative control of DMSO (0 μM, the final concentration of DMSO was 1%). 5 μL of each concentration was added to 120 μL of medium (25 times diluted) and mixed by shaking. The overnight cells were taken and the culture medium was removed, 195 μL of fresh medium containing 205 nM CPT-11 was added to each well, and 5 μL of diluted medium containing the corresponding concentration of the tested sample was added respectively, and the culture plate was then placed in the 5% CO2 cell culture incubator at 37° C. for 5 days. After removing the original solution, 100 μL of fresh serum-free DMEM medium containing MTT (0.5 mg/mL) was added to each well, the culture was continued. After 4 hours, the original solution was removed, 100 μL of DMSO was added into each well, the 96-well plates were shaken away from light for 10 minutes and placed in a multi-function reader to read the absorbance at the wavelength of 552/630/690 nm. GraphPad Prism 6.0 was used to analyze the data. The inhibitory activity of compounds on cell proliferation was plotted based on cell viability and compound concentration. The IC50 value was fitted by a sigmoidal dose response curve equation Y=100/(1+10^(Log C−Log IC50)), where C was the concentration of compound.

[2] = 0.5 h, detected concentration 1 μm

Chain of ATM enzyme (human) (Q13315 whole entry): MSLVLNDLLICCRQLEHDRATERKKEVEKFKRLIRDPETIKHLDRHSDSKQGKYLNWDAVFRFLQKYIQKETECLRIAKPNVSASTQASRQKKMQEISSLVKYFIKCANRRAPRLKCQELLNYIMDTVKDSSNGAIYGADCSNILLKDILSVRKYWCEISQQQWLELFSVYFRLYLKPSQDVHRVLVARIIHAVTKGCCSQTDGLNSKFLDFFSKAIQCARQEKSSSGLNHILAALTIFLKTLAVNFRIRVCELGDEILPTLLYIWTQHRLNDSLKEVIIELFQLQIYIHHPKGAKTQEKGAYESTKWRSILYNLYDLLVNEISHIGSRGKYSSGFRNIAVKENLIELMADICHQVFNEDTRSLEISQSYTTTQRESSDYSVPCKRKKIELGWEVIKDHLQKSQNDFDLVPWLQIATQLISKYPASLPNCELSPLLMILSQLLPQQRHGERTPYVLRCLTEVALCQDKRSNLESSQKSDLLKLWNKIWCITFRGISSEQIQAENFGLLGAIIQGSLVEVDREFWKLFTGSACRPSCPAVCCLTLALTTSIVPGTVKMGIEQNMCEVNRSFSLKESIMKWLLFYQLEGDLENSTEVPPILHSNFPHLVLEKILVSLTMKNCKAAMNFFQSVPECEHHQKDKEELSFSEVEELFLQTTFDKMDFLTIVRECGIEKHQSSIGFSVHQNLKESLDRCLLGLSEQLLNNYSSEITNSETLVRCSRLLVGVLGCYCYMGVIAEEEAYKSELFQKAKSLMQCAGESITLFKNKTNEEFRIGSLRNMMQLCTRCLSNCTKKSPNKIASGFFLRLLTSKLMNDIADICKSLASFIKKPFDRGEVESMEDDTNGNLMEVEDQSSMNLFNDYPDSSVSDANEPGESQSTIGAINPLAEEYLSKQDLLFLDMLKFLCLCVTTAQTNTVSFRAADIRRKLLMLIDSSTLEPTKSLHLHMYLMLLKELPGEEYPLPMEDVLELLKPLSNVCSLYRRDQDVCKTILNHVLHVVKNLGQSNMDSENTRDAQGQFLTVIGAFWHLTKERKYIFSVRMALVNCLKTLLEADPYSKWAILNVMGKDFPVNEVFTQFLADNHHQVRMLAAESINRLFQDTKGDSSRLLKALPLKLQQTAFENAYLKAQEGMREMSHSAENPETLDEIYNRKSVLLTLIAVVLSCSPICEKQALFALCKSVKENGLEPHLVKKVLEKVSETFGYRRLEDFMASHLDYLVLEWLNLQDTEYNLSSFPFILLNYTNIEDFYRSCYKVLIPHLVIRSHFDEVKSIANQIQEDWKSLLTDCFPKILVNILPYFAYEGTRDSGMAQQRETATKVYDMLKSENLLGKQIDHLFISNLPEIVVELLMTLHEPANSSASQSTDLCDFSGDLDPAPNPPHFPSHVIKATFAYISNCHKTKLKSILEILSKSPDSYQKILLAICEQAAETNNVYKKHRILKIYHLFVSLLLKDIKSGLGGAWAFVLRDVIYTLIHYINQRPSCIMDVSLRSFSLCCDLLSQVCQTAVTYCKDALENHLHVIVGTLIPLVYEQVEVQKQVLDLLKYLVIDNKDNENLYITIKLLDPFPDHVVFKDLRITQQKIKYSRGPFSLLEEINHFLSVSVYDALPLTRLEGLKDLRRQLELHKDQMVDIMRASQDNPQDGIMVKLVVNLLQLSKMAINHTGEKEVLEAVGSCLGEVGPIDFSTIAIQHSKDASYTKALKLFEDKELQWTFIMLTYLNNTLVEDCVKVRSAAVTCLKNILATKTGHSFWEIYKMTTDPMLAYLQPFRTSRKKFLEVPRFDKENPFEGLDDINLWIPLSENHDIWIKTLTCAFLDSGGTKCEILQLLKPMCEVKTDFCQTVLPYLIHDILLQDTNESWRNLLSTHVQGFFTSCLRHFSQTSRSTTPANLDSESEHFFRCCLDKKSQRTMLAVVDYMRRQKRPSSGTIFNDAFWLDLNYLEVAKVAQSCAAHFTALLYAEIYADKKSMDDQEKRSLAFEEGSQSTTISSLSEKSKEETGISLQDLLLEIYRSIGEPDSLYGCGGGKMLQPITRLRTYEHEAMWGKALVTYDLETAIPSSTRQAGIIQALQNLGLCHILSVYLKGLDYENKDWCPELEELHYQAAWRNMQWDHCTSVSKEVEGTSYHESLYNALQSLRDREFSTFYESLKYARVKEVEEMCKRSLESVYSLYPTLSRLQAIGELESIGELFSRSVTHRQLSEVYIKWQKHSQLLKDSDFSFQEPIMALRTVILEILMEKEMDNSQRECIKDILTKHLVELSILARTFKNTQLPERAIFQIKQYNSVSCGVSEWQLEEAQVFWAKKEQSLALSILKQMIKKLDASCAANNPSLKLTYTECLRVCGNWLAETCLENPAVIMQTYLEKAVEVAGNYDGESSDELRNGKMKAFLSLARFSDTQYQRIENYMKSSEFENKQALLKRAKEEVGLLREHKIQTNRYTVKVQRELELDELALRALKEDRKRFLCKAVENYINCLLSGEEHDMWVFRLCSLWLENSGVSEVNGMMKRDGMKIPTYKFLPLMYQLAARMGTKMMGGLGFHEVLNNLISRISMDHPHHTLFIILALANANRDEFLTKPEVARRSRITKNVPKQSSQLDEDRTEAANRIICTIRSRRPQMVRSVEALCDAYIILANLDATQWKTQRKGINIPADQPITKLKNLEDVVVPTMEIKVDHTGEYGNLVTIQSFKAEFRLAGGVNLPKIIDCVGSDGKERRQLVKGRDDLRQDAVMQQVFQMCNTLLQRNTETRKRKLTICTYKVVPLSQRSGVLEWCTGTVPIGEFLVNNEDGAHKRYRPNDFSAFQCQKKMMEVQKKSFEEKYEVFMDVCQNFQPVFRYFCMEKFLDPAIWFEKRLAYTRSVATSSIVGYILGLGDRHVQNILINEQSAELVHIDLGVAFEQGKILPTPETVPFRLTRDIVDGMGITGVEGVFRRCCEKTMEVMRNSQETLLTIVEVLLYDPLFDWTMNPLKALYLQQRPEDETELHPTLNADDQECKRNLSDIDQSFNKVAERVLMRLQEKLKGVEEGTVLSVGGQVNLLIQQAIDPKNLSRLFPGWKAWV

| inhibition at 1 µM (ATM enzyme (human); [2]) [%] | IC50 ([1]; Homo sapiens, SW-620, 120 h) [nM] | inhibition at 0.01 µM (ATM enzyme (human); 0.5 h, detected concentration 0.01 μm) [%] | inhibition at 0.1 µM (ATM enzyme (human); 0.5 h, detected concentration 0.1 μm) [%] | inhibition(%) of ATM kinase (ATM enzyme (human); detected concentration 1 μm) [%] | IC50 [1] [nM] | Structure (SMILES) |
| --- | --- | --- | --- | --- | --- | --- |
| 91 | 1510 | 17 | 62 |  |  | CN(C)C1CCN(c2ccc(-c3ccc4nc5cccc(C6=CCOCC6)c5n4c3)cc2)CC1 [Example 39, N,N-dimethyl-1-(4-(9-(3,6-dihydro-2H-pyran-4-yl)benzo[4,5]imidazo[1,2-a]pyridin-2-yl)phenyl)piperidin-4-amine] |
| 96 | 2370 |  |  |  |  | CN(C)C1CCN(c2ccc(-c3ccc4nc5cccc(C6=CCOCC6)c5n4c3)cn2)CC1 [Example 40, N,N-dimethyl-1-(5-(9-(3,6-dihydro-2H-pyran-4-yl)benzo[4,5]imidazo[1,2-a]pyridin-2-yl)pyridin-2-yl)piperidin-4-amine] |
| 81 | 1660 |  |  |  |  | CN(C)CCCOc1ccc(-c2ccc3nc4cccc(C5=CCOCC5)c4n3c2)cc1 [Example 2, N,N-dimethyl-3-(4-(9-(3,6-dihydro-2H-pyran-4-yl)benzo[4,5]imidazo[1,2-a]pyridin-2-yl)phenoxy)propan-1-amine] |
| 82 | 3480 |  |  |  |  | CN(C)C1CCN(c2ccc(-c3ccc4nc5cccc(N6CCOCC6)c5n4c3)cc2)CC1 [Example 41, N,N-dimethyl-1-(4-(9-morpholinobenzo[4,5]imidazo[1,2-a]pyridin-2-yl)phenyl)piperidin-4-amine] |

Further lines, the molecule ahead of its results:

| Structure (SMILES) | inhibition at 1 µM (ATM enzyme (human); [2]) [%] | IC50 ([1]; Homo sapiens, SW-620, 120 h) [nM] | inhibition at 0.01 µM (ATM enzyme (human); 0.5 h, detected concentration 0.01 μm) [%] | inhibition at 0.1 µM (ATM enzyme (human); 0.5 h, detected concentration 0.1 μm) [%] | inhibition(%) of ATM kinase (ATM enzyme (human); detected concentration 1 μm) [%] | IC50 [1] [nM] |
| --- | --- | --- | --- | --- | --- | --- |
| CN(C)CCCOc1ccc(-c2ccc3nc4cccc(N5CCCCC5)c4n3c2)cn1 [Example 5, N,N-dimethyl-3-((5-(9-(piperidin-1-yl)benzo[4,5]imidazo[1,2-a]pyridin-2-yl)pyridin-2-yl)oxy)propan-1-amine] | 61 | > 10000 |  |  |  |  |
| CN(C)CCCOc1ccc(-c2ccc3nc4cccc(NC5CCOCC5)c4n3c2)cn1 [Example 14, N,N-dimethyl-3-((5-(9-(tetrahydro-2H-pyran-4-ylamino)benzo[4,5]imidazo[1,2-a]pyridin-2-yl)pyridin-2-yl)oxy)propan-1-amine] | 48 | > 10000 |  |  |  |  |
| CN(C)CCCOc1ccc(-c2ccc3nc4cccc(N5CCOCC5)c4n3c2)cc1 [Example 4, N,N-dimethyl-3-(4-(9-morpholinobenzo[4,5]imidazo[1,2-a]pyridin-2-yl)phenoxy)propan-1-amine] | 74 | 5480 |  |  |  |  |
| CN(C)CCCOc1ccc(-c2ccc3nc4cccc(N5CCN(C)CC5)c4n3c2)cn1 [Example 7, N,N-dimethyl-3-((5-(9-(4-methylpiperazin-1-yl)benzo[4,5]imidazo[1,2-a]pyridin-2-yl)pyridin-2-yl)oxy)propan-1-amine] | 64 | > 10000 |  |  |  |  |
| C[C@@H]1CN(c2cccc3nc4ccc(-c5ccc(OCCCN(C)C)c(C(F)(F)F)c5)cn4c23)C[C@H](C)N1C [Example 53, N,N-dimethyl-3-(2-(trifluoromethyl)-4-(9-((3S,5R)-3,4,5-trimethylpiperazin-1-yl)benzo[4,5]imidazo[1,2-a]pyridin-2-yl)phenoxy)propan-1-amine] | 100 | 162 |  |  |  |  |
| CN(C)CCCOc1ccc(-c2ccc3nc4cccc(N5CCOCC5)c4n3c2)cn1 [Example 6, N,N-dimethyl-3-((5-(9-morpholinobenzo[4,5]imidazo[1,2-a]pyridin-2-yl)pyridin-2-yl)oxy)propan-1-amine] | 77 | 2470 |  |  |  |  |
| CN(C)CCCOc1ccc(-c2ccc3nc4cccc(CN5CCN(C)CC5)c4n3c2)cn1 [Example 11] |  |  |  |  | 63 | 1040 |
| CN(C)CCCOc1ccc(-c2ccc3nc4cccc(OC5CCOCC5)c4n3c2)cn1 [Example 13, N,N-dimethyl-3-((5-(9-((tetrahydro-2H-pyran-4-yl)oxy)benzo[4,5]imidazo[1,2-a]pyridin-2-yl)pyridin-2-yl)oxy)propan-1-amine] | 86 | 1570 |  |  |  |  |
